In ChEMBL document CHEMBL3734659, “Identification of tris-(phenylalkyl)amines as new selective h5-HT2Breceptor antagonists” (Medchemcomm, 2015):
Active and inactive are the calls of the source. No cut-off for these calls is given here.

Legend:
[1] = target: Muscarinic acetylcholine receptor M4 (Homo sapiens) (UniProt P08173); test: Displacement of [3H]NMS from human Muscarinic acetylcholine M4 receptor stably expressed in CHO cell after 90 mins by scintillation counting method; format: cell-based
[2] = target: 5-hydroxytryptamine receptor 1D (Homo sapiens, UniProt P28221); test: Displacement of [3H]5-CT from human recombinant 5-HT1D receptor expressed in HEKT cell membrane after 90 mins by scintillation counting method; format: cell membranes
Sequence of 5-hydroxytryptamine receptor 1D (P28221 whole entry): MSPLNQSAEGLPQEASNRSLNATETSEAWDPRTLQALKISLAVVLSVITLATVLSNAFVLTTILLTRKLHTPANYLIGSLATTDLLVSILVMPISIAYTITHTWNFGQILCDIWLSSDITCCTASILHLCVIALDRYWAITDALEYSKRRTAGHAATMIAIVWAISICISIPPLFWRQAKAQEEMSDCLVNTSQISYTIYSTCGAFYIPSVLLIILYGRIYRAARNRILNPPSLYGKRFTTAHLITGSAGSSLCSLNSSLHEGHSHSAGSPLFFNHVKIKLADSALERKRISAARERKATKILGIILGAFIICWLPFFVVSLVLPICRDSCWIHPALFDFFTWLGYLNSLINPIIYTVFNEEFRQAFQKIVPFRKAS

[3] = target: T1, 5-hydroxytryptamine receptor 2A (Homo sapiens, UniProt P28223); test: Displacement of [3H]ketanserin from human recombinant 5-HT2A receptor expressed in HEKT cell membrane after 90 mins by scintillation counting method; format: cell-based
T1 sequence (P28223 whole entry): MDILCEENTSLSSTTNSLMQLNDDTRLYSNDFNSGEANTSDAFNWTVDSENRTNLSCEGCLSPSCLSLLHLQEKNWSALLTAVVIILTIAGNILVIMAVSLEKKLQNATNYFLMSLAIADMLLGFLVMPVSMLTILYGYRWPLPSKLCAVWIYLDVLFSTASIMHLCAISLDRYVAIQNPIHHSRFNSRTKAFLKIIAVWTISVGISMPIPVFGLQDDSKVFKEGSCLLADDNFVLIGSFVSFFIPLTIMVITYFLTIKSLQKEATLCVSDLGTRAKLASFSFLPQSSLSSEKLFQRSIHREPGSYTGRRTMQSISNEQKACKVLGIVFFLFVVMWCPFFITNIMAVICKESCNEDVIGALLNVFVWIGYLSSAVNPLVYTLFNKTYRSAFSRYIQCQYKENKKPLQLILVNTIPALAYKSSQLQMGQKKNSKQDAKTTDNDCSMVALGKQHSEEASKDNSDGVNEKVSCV

[4] = target: T2, 5-hydroxytryptamine receptor 2B (Homo sapiens, UniProt P41595); test: […] antagonist activity at human recombinant 5-HT2B receptor stably expressed in HEK cell membrane by schild plot method; design: species or system HEK293; conditions: read-out: pA2 (converted)
T2 sequence (P41595 whole entry): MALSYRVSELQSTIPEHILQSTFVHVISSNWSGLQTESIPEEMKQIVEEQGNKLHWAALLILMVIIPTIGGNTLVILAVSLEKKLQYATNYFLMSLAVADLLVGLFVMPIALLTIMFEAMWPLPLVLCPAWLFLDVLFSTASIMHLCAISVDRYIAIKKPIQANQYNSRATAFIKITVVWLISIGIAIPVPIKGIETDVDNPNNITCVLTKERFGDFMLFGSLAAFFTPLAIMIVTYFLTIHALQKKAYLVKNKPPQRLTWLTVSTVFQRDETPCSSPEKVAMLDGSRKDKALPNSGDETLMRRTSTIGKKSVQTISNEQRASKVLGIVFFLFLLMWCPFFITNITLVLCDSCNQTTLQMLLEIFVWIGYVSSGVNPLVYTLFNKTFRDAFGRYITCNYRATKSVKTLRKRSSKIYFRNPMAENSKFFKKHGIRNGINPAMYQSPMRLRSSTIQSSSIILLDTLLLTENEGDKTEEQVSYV

[5] = target: Delta-type opioid receptor (Homo sapiens) (UniProt P41143); test: Displacement of [3H]DADLE from human delta-opioid receptor stably expressed in HEK cell membrane after 90 mins by scintillation counting method; format: cell membranes; conditions: HEK293
Sequence of Delta-type opioid receptor (Homo sapiens) (P41143 whole entry): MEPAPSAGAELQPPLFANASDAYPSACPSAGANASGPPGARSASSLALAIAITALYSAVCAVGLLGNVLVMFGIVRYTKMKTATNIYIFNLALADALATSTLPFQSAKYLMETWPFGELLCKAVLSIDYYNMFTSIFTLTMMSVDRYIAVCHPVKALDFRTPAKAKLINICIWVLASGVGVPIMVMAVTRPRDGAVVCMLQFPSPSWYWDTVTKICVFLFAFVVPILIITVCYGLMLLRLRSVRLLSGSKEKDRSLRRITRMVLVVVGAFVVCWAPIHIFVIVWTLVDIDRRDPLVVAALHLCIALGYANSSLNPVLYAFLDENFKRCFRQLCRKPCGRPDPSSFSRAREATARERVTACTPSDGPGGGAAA

[6] = target: Muscarinic acetylcholine receptor M1 (Homo sapiens) (UniProt P11229); test: Displacement of [3H]NMS from human Muscarinic acetylcholine M1 receptor stably expressed in CHO cell after 90 mins by scintillation counting method; format: cell-based
Sequence of Muscarinic acetylcholine receptor M1 (Homo sapiens) (P11229 whole entry): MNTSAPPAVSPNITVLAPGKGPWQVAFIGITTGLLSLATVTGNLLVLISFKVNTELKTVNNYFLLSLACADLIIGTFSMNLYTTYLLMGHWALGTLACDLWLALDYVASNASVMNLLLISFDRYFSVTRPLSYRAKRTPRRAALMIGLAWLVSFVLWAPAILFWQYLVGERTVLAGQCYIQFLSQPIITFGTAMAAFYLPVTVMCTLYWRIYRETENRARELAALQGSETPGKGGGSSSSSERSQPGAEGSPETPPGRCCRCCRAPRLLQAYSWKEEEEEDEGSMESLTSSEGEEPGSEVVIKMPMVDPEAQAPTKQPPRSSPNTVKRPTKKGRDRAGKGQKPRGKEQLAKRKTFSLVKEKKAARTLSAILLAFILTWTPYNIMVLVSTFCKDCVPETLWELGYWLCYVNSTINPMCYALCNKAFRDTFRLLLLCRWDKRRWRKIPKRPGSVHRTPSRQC

[7] = target: T1, 5-hydroxytryptamine receptor 2A; test: Agonist activity at human recombinant 5-HT2A receptor expressed in Flp-In HEK cells preincubated for 10 mins by FLIPR based calcium mobilization assay; format: functional, cell-based; conditions: HEK293
[8] = target: Translocator protein (Rattus norvegicus) (UniProt P16257); test: Displacement of [3H]PK11195 from rat brain PBR after 90 mins by scintillation counting method
[9] = system: HEK293; test: Selectivity ratio of Ki for human recombinant 5-HT2C receptor to Ki for human recombinant 5-HT2B receptor stably expressed in HEK cell membrane; format: cell-based
[10] = target: 5-hydroxytryptamine receptor 1B (Homo sapiens) (UniProt P28222); test: Displacement of [3H]5-CT from human recombinant 5-HT1B receptor stably expressed in HEK cell membrane after 90 mins by scintillation counting method; format: cell membranes; conditions: HEK293
[11] = target: Alpha-1D adrenergic receptor (Homo sapiens, UniProt P25100); test: Displacement of [3H]Prazosin from human recombinant alpha 1D receptor after 90 mins by scintillation counting method
[12] = target: D(4) dopamine receptor (Homo sapiens, UniProt P21917); test: Displacement of [3H]N-methylspiperone from human recombinant dopamine D4 receptor after 90 mins by scintillation counting method
[13] = target: Sodium-dependent noradrenaline transporter (Homo sapiens, UniProt P23975); test: Displacement of [3H]Nisoxetine from human norepinephrine transporter stably expressed in HEK293 cells after 30 mins by neurotransmitter transporter uptake assay; format: cell-based
Sequence of Sodium-dependent noradrenaline transporter (P23975 whole entry): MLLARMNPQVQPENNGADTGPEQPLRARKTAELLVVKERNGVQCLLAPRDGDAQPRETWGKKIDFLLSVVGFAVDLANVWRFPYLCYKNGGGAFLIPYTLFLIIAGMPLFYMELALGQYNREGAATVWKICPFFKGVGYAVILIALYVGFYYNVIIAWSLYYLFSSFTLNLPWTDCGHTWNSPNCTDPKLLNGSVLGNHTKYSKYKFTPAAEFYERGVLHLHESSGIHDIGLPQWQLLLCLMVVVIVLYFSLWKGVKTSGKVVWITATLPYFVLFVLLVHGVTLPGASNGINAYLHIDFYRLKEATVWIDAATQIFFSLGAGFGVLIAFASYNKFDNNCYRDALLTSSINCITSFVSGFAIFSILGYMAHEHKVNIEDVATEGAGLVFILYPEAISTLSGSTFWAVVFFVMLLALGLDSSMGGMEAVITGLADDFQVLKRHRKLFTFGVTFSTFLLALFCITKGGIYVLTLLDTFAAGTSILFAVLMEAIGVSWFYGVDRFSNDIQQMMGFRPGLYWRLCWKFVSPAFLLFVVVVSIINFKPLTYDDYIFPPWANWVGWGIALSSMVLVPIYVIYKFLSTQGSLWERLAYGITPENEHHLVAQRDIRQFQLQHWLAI

[14] = target: Muscarinic acetylcholine receptor M3 (Homo sapiens) (UniProt P20309); test: Displacement of [3H]NMS from human Muscarinic acetylcholine M3 receptor stably expressed in CHO cell after 90 mins by scintillation counting method; format: cell-based
[15] = target: Beta-3 adrenergic receptor (Homo sapiens) (UniProt P13945); test: Displacement of [3H]CGP12177 from human recombinant beta 3 receptor expressed in HEK Flp-In cells after 90 mins by scintillation counting method; format: cell-based; conditions: HEK293
Sequence of Beta-3 adrenergic receptor (Homo sapiens) (P13945 whole entry, looked up): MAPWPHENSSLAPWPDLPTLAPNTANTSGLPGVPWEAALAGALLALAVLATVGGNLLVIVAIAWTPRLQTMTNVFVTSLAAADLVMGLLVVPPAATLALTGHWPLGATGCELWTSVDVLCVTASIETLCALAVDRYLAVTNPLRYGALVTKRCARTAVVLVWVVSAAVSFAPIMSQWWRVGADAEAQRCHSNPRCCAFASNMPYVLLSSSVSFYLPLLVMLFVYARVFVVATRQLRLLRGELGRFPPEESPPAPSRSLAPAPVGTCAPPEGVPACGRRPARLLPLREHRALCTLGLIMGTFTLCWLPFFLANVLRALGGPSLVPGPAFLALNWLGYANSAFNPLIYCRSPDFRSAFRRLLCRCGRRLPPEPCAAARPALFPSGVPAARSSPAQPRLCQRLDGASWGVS

[16] = target: D(1B) dopamine receptor (Homo sapiens) (UniProt P21918); test: Displacement of [3H]SCH23390 from human recombinant dopamine D5 receptor expressed in HEKT cell membrane after 90 mins by scintillation counting method; format: cell membranes
Sequence of D(1B) dopamine receptor (Homo sapiens) (P21918 whole entry): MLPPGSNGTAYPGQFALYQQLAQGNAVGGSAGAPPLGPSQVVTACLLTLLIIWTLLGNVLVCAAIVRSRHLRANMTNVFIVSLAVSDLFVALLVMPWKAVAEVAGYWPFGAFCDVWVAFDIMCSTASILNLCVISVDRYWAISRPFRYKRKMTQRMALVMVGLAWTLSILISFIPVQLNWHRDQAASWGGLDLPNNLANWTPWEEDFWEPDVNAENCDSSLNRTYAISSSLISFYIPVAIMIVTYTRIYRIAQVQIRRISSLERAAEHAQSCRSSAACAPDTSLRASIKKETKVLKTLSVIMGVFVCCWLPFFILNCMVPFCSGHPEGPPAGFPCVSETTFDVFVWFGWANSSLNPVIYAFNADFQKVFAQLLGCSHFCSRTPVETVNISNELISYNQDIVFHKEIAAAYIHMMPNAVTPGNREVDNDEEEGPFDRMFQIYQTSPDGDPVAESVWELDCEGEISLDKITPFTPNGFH

[17] = target: 5-hydroxytryptamine receptor 7 (Homo sapiens, UniProt P34969); test: Displacement of [3H]LSD from human recombinant 5-HT7A receptor stably expressed in HEKT cell membrane after 90 mins by scintillation counting method; format: cell membranes
[18] = target: Alpha-2A adrenergic receptor (Homo sapiens, UniProt P08913); test: Displacement of [3H]Rauwolscine from human recombinant alpha 2A receptor stably expressed in MDCK cells after 90 mins by scintillation counting method; format: cell-based
[19] = species: Rattus norvegicus; test: Displacement of [3H]Muscimol from rat brain Gamma-aminobutyric acid type-A receptor after 90 mins by scintillation counting method
[20] = species: Rattus norvegicus; test: Displacement of [3H]Flunitrazepam from rat brain BZP after 90 mins by scintillation counting method
[21] = target: 5-hydroxytryptamine receptor 1E (Homo sapiens) (UniProt P28566); test: Displacement of [3H]5-CT from human recombinant 5-HT1E receptor stably expressed in HEK cell membrane after 90 mins by scintillation counting method; format: cell membranes; conditions: HEK293
Sequence of 5-hydroxytryptamine receptor 1E (Homo sapiens) (P28566 whole entry): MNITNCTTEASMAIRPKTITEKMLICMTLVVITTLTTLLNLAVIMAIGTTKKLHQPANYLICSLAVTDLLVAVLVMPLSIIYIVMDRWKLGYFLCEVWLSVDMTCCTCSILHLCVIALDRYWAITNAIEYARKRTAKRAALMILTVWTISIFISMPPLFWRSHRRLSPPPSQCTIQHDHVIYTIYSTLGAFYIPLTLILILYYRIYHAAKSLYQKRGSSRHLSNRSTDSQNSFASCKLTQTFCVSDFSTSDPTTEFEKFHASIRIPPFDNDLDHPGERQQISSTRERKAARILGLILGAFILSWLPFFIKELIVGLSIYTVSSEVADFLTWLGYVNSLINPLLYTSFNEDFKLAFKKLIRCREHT

[22] = target: 5-hydroxytryptamine receptor 6 (Homo sapiens) (UniProt P50406); test: Displacement of [3H]LSD from human recombinant 5-HT6 receptor stably expressed in HEK cell membrane by scintillation counting method; format: cell membranes; conditions: HEK293
[23] = target: Alpha-2C adrenergic receptor (Homo sapiens, UniProt P18825); test: Displacement of [3H]Rauwolscine from human recombinant alpha 2C receptor stably expressed in MDCK cells after 90 mins by scintillation counting method; format: cell-based
Sequence of Alpha-2C adrenergic receptor (P18825 whole entry): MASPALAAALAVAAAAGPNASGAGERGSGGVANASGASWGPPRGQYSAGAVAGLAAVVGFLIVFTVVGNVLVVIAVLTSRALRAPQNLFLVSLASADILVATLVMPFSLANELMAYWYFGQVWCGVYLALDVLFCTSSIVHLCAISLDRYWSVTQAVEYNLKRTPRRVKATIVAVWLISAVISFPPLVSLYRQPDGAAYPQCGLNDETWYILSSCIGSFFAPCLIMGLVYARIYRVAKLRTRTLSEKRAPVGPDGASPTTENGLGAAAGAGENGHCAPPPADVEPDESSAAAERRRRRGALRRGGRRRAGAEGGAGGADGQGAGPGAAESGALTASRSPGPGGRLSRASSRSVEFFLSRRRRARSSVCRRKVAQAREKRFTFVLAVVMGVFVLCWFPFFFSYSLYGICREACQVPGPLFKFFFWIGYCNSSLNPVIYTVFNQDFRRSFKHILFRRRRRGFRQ

[24] = target: Muscarinic acetylcholine receptor M1 (Homo sapiens) (UniProt P11229); test: Displacement of [3H]QNB from human Muscarinic acetylcholine M1 receptor stably expressed in CHO cell after 90 mins by scintillation counting method; format: cell-based
[25] = Displacement of [3H]DTG from sigma 2 receptor stable expressed in rat PC12 cells after 90 mins by scintillation counting method; format: cell-based; conditions: pc-12
[26] = target: T2, 5-hydroxytryptamine receptor 2B; test: Displacement of [3H]LSD from human recombinant 5-HT2B receptor stably expressed in HEK cell membrane after 90 mins by scintillation counting method; format: cell membranes, HEK293
[27] = target: Alpha-1A adrenergic receptor (Homo sapiens, UniProt P35348); test: Displacement of [3H]Prazosin from human recombinant alpha 1A receptor after 90 mins by scintillation counting method
Sequence of Alpha-1A adrenergic receptor (P35348 whole entry): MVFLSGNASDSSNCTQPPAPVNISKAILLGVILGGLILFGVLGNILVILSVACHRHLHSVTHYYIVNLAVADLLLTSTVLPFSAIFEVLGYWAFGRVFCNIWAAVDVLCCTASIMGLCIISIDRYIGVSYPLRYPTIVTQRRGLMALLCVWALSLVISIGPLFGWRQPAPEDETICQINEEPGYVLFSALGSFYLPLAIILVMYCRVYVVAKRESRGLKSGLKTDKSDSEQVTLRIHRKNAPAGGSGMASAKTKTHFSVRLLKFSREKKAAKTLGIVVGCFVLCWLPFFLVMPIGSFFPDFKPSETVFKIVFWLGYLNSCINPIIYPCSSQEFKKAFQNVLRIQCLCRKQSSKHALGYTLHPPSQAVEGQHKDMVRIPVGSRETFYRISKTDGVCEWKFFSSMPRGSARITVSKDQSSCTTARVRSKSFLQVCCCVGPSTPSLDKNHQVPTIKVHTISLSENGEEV

[28] = target: T1, 5-hydroxytryptamine receptor 2A; test: Displacement of [3H]ketanserin from human recombinant 5-HT2A receptor expressed in HEKT cell membrane at 10 uM after 90 mins by scintillation counting method; format: cell membranes
[29] = target: Muscarinic acetylcholine receptor M5 (Homo sapiens) (UniProt P08912); test: Displacement of [3H]NMS from human Muscarinic acetylcholine M5 receptor stably expressed in CHO cell after 90 mins by scintillation counting method; format: cell-based
[30] = Displacement of [3H]Pentazocine from Guinea pig sigma 1 receptor after 90 mins by scintillation counting method; design: species or system Cavia porcellus
[31] = target: Histamine H3 receptor (Homo sapiens) (UniProt Q9Y5N1); test: Displacement of [3H]alpha-methylhistamine from human H3 Histamine receptors expressed in HEK Flp-In cell after 90 mins by scintillation counting method; format: cell-based; conditions: HEK293
[32] = target: Beta-2 adrenergic receptor (Homo sapiens) (UniProt P07550); test: Displacement of [3H]CGP12177 from human recombinant beta 2 receptor expressed in HEK Flp-In cells after 90 mins by scintillation counting method; format: cell-based; conditions: HEK293

COc1ccc(CCN(CCCc2ccccc2)CCc2ccc3c(c2)OCO3)cc1OC
Activity [1]: inactive | Ki [2]: 451 nM | Ki [3]: 165 nM | Kb [4]: 550 nM | Activity [5]: inactive | Activity [6]: inactive | Activity [7]: inactive | Activity [8]: inactive | Ratio Ki [9]: 15 | Activity [10]: inactive | Ki [11]: 467 nM | Ki [12]: 853 nM | Ki [13]: 11 nM | Activity [14]: inactive | Activity [15]: inactive | Activity [16]: inactive | Ki [17]: 700 nM | Ki [18]: 102 nM | Activity [19]: inactive | Activity [20]: inactive | Activity [21]: inactive | Activity [22]: inactive | Ki [23]: 429 nM | Activity [24]: inactive | Ki [25]: 242 nM | Ki [26]: 26 nM | Ki [27]: 333 nM | inhibition [28]: > 50% | Activity [29]: inactive | Ki [30]: 176 nM | Activity [31]: inactive | Activity [32]: inactive
